Data published in ChEMBL document CHEMBL5046228 (Eur J Med Chem, 2022).

Tests used:
[1] = target: Epidermal growth factor receptor (Homo sapiens, UniProt P00533); assay: Inhibition of wild type EGFR (unknown origin) using flurogenic substrate in presence of ATP by HTRF assay
[2] = Selectivity index, ratio of IC50 Inhibition of wild type EGFR (unknown origin) to IC50 for Inhibition of EGFR T790M/C797S double mutant (unknown origin)
HCC827 = assay: Antiproliferative activity against human HCC827 cells expressing EGFR del119 mutant assessed as inhibition in cell viability after 72 hrs by CCK8 assay; type: functional, cell-based; conditions: HCC827, 72 h
NCI-H1299 [3] = assay: Antiproliferative activity against human NCI-H1299 cells expressing wild type EGFR assessed as inhibition in cell viability after 72 hrs by CCK8 assay; type: functional, cell-based; conditions: NCI-H1299, 72 h
NCI-H1299 [4] = assay: Induction of cell cycle arrest in human NCI-H1299 cells assessed as accumulation at G0/G1 phase at 0.5 uM after 36 hrs by PI staining based flow cytometry analysis (reference value: 70.2%); type: functional
NCI-H1299 [5] = assay: Induction of cell cycle arrest in human NCI-H1299 cells assessed as accumulation at S phase at 0.5 uM after 36 hrs by PI staining based flow cytometry analysis (reference value: 24.8%); type: functional
NCI-H1299 [6] = assay: Induction of cell cycle arrest in human NCI-H1299 cells assessed as accumulation at G0/G1 phase at 2.5 uM after 36 hrs by PI staining based flow cytometry analysis (reference value: 70.2%); type: functional
NCI-H1299 [7] = assay: Induction of cell cycle arrest in human NCI-H1299 cells assessed as accumulation at G2/M phase at 2.5 uM after 36 hrs by PI staining based flow cytometry analysis (reference value: 5.6%); type: functional
NCI-H1975 [8] = assay: Induction of cell cycle arrest in human NCI-H1975 cells assessed as accumulation at G0/G1 phase at 0.1 uM after 36 hrs by PI staining based flow cytometry analysis (reference value: 24.2%); type: functional
NCI-H1975 [9] = assay: Induction of cell cycle arrest in human NCI-H1975 cells assessed as accumulation at G2/M phase at 0.1 uM after 36 hrs by PI staining based flow cytometry analysis (reference value: 43.1%); type: functional
NCI-H1975 [10] = assay: Induction of cell cycle arrest in human NCI-H1975 cells assessed as accumulation at S phase at 0.1 uM after 36 hrs by PI staining based flow cytometry analysis (reference value: 32.7 %); type: functional
NCI-H1975 [11] = assay: Induction of cell cycle arrest in human NCI-H1975 cells assessed as accumulation at G2/M phase at 0.5 uM after 36 hrs by PI staining based flow cytometry analysis (reference value: 43.1%); type: functional
NCI-H1975 [12] = assay: Induction of cell cycle arrest in human NCI-H1975 cells assessed as accumulation at G2/M phase at 2.5 uM after 36 hrs by PI staining based flow cytometry analysis (reference value: 43.1%); type: functional
NCI-H1299 [13] = assay: Induction of apoptosis in human NCI-H1299 cells assessed as increase in viable cells at 0.02 uM after 36 hrs by annexin-V-FITC/PI staining based flow cytometric analysis (reference value: 94.1%); type: functional
NCI-H1299 [14] = assay: Induction of apoptosis in human NCI-H1299 cells assessed as increase in early apoptotic cells at 0.02 uM after 36 hrs by annexin-V-FITC/PI staining based flow cytometric analysis (reference value: 0.79%); type: functional
NCI-H1299 [15] = assay: Induction of apoptosis in human NCI-H1299 cells assessed as increase in late apoptotic cells at 0.02 uM after 36 hrs by annexin-V-FITC/PI staining based flow cytometric analysis (reference value: 4.39%); type: functional
NCI-H1299 [16] = assay: Induction of apoptosis in human NCI-H1299 cells assessed as increase in necrotic cells at 0.02 uM after 36 hrs by annexin-V-FITC/PI staining based flow cytometric analysis (reference value: 0.75%); type: functional
NCI-H1299 [17] = assay: Induction of apoptosis in human NCI-H1299 cells assessed as increase in early apoptotic cells at 0.1 uM after 36 hrs by annexin-V-FITC/PI staining based flow cytometric analysis (reference value: 0.79%); type: functional
NCI-H1299 [18] = assay: Induction of apoptosis in human NCI-H1299 cells assessed as increase in late apoptotic cells at 0.1 uM after 36 hrs by annexin-V-FITC/PI staining based flow cytometric analysis (reference value: 4.39%); type: functional
NCI-H1299 [19] = assay: Induction of apoptosis in human NCI-H1299 cells assessed as increase in necrotic cells at 0.5 uM after 36 hrs by annexin-V-FITC/PI staining based flow cytometric analysis (reference value: 0.75%); type: functional
NCI-H1299 [20] = assay: Induction of apoptosis in human NCI-H1299 cells assessed as increase in viable cells at 2.5 uM after 36 hrs by annexin-V-FITC/PI staining based flow cytometric analysis (reference value: 94.1%); type: functional
NCI-H1299 [21] = assay: Induction of apoptosis in human NCI-H1299 cells assessed as increase in necrotic cells at 2.5 uM after 36 hrs by annexin-V-FITC/PI staining based flow cytometric analysis (reference value: 0.75%); type: functional
NCI-H1975 [22] = assay: Induction of apoptosis in human NCI-H1975 cells assessed as increase in viable cells at 0.02 uM after 36 hrs by annexin-V-FITC/PI staining based flow cytometric analysis (reference value: 94.6%); type: functional
NCI-H1975 [23] = assay: Induction of apoptosis in human NCI-H1975 cells assessed as increase in late apoptotic cells at 0.02 uM after 36 hrs by annexin-V-FITC/PI staining based flow cytometric analysis (reference value: 3.85%); type: functional
NCI-H1975 [24] = assay: Induction of apoptosis in human NCI-H1975 cells assessed as increase in necrotic cells at 0.02 uM after 36 hrs by annexin-V-FITC/PI staining based flow cytometric analysis (reference value: 0.35%); type: functional
NCI-H1975 [25] = assay: Induction of apoptosis in human NCI-H1975 cells assessed as increase in early apoptotic cells at 0.1 uM after 36 hrs by annexin-V-FITC/PI staining based flow cytometric analysis (reference value: 1.24%); type: functional
NCI-H1975 [26] = assay: Induction of apoptosis in human NCI-H1975 cells assessed as increase in viable cells at 0.5 uM after 36 hrs by annexin-V-FITC/PI staining based flow cytometric analysis (reference value: 94.6%); type: functional
NCI-H1975 [27] = assay: Induction of apoptosis in human NCI-H1975 cells assessed as increase in early apoptotic cells at 0.5 uM after 36 hrs by annexin-V-FITC/PI staining based flow cytometric analysis (reference value: 1.24%); type: functional
NCI-H1975 [28] = assay: Induction of apoptosis in human NCI-H1975 cells assessed as increase in late apoptotic cells at 0.5 uM after 36 hrs by annexin-V-FITC/PI staining based flow cytometric analysis (reference value: 3.85%); type: functional
NCI-H1975 [29] = assay: Induction of apoptosis in human NCI-H1975 cells assessed as increase in viable cells at 2.5 uM after 36 hrs by annexin-V-FITC/PI staining based flow cytometric analysis (reference value: 94.6%); type: functional
NCI-H1975 [30] = assay: Induction of apoptosis in human NCI-H1975 cells assessed as increase in early apoptotic cells at 2.5 uM after 36 hrs by annexin-V-FITC/PI staining based flow cytometric analysis (reference value: 1.24%); type: functional

Epidermal growth factor receptor, sequence (P00533 whole entry): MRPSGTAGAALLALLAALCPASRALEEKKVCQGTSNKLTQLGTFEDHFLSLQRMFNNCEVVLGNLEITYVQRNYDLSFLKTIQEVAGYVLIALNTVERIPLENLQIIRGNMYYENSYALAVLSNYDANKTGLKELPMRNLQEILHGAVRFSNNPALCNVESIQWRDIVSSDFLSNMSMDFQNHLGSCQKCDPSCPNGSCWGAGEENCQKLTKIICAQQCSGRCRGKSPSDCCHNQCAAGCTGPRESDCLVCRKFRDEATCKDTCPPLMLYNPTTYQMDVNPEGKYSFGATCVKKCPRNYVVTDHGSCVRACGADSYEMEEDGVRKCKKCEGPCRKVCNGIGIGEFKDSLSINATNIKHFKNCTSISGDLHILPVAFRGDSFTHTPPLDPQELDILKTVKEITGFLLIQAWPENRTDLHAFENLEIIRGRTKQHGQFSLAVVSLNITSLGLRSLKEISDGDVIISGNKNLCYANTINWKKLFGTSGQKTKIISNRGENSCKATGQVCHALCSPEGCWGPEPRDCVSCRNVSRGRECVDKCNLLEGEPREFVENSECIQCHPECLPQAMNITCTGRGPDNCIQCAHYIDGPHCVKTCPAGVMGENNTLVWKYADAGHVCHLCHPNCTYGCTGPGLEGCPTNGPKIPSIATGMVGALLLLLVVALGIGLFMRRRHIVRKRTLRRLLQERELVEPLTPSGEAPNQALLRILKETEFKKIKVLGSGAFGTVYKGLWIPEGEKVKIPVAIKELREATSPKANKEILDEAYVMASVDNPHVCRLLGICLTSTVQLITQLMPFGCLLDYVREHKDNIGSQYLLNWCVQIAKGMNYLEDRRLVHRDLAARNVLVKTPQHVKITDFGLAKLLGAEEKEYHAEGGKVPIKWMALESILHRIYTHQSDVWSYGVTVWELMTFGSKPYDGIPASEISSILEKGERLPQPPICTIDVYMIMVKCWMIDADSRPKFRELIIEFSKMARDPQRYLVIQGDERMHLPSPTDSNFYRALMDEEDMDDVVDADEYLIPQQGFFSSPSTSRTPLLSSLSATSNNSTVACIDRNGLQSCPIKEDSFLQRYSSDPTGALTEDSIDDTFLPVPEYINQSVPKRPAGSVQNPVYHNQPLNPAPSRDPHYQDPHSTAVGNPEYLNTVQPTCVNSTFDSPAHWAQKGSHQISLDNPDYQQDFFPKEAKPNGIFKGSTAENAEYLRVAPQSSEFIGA

Which IC50 [1] does the source give for `C#CCN(C)CCN(C)c1cc(OC)c(Nc2nccc(Nc3cn(C)c4ccccc34)n2)cc1NC(=O)C=C` here?
Its IC50 is over 10 µM.

What about the Ratio IC50 [2] of the same molecule?
Its Ratio IC50 is over 2490.

And the IC50 (HCC827)?
The IC50 was 3.63 nM.

What about the IC50 (NCI-H1299 [3]) of the same molecule?
Its IC50 is over 100 µM.

And the Activity (NCI-H1299 [4])?
The Activity was 68.4%.

What about the Activity (NCI-H1299 [5]) of the same molecule?
The Activity was 25.6%.

And the Activity (NCI-H1299 [6])?
The Activity was 67.5%.

And the Activity (NCI-H1299 [7])?
The Activity was 7.8%.

And the Activity (NCI-H1975 [8])?
Its Activity is 19.1%.

What about the Activity (NCI-H1975 [9]) of the same molecule?
Its Activity is 58.2%.

And the Activity (NCI-H1975 [10])?
Its Activity is 22.7%.

And the Activity (NCI-H1975 [11])?
The Activity was 62.6%.

What about the Activity (NCI-H1975 [12]) of the same molecule?
Its Activity is 64.6%.

What about the Activity (NCI-H1299 [13]) of the same molecule?
Its Activity is 93.1%.

And the Activity (NCI-H1299 [14])?
Its Activity is 1.05%.

And the Activity (NCI-H1299 [15])?
Its Activity is 5.17%.

What about the Activity (NCI-H1299 [16]) of the same molecule?
Its Activity is 0.65%.

And the Activity (NCI-H1299 [17])?
Its Activity is 1.06%.

And the Activity (NCI-H1299 [18])?
Its Activity is 5.69%.

And the Activity (NCI-H1299 [19])?
The Activity was 0.77%.

And the Activity (NCI-H1299 [20])?
The Activity was 92.1%.

And the Activity (NCI-H1299 [21])?
Its Activity is 0.6%.

And the Activity (NCI-H1975 [22])?
Its Activity is 94.9%.

What about the Activity (NCI-H1975 [23]) of the same molecule?
The Activity was 3.09%.

What about the Activity (NCI-H1975 [24]) of the same molecule?
The Activity was 0.038%.

And the Activity (NCI-H1975 [25])?
The Activity was 4.45%.

What about the Activity (NCI-H1975 [26]) of the same molecule?
Its Activity is 79.2%.

What about the Activity (NCI-H1975 [27]) of the same molecule?
The Activity was 12.2%.

What about the Activity (NCI-H1975 [28]) of the same molecule?
The Activity was 8.52%.

What about the Activity (NCI-H1975 [29]) of the same molecule?
Its Activity is 47.3%.

And the Activity (NCI-H1975 [30])?
Its Activity is 45.4%.
